Measured values from patent publication US20260015325A1, “ALKOXY HETEROARYL- CARBOXAMIDE OR THIOAMIDE COMPOUNDS” (SYNGENTA CROP PROTECTION AG, priority 2022, published 2026).

Tests used:
Assay type in all cases: in vivo
[1] = tested on: Euschistus heros (Neotropical Brown Stink Bug); experiment: Euschistus heros (Neotropical Brown Stink Bug), soybean leaves; details: 120 h, application rate of 200 ppm, N2 nymphs on sprayed soybean leaves, 5 days after infestation, read-out: effect in at least one of the two categories (mortality or growth inhibition)
Protocol: Example B4: Euschistus heros (Neotropical Brown Stink Bug)
Soybean leaves on agar in 24-well microtiter plates were sprayed with aqueous test solutions prepared from 10′000 ppm DMSO stock solutions. After drying the leaves were infested with N2 nymphs. The samples were assessed for mortality and growth inhibition in comparison to untreated samples 5 days after infestation.

[2] = tested on: Myzus persicae (Green Peach Aphid); experiment: Myzus persicae (Green Peach Aphid): intrinsic activity, sucrose solution; details: 120 h, test rate of 12 ppm, intrinsic, mixed with sucrose solution under Parafilm, 5 days after infestation, read-out: mortality
Description: Example B8: Myzus persicae (Green Peach Aphid). Intrinsic Activity
Test compounds prepared from 10′000 ppm DMSO stock solutions were applied by pipette into 24-well microtiter plates and mixed with sucrose solution. The plates were closed with a stretched Parafilm. A plastic stencil with 24 holes was placed onto the plate and infested pea seedlings were placed directly on the Parafilm. The infested plate was closed with a gel blotting paper and another plastic stencil and then turned upside down. The samples were assessed for mortality 5 days after infestation.

[3] = tested on: Tetranychus urticae (Two-Spotted Spider Mite); experiment: whole plant or invertebrate; details: foliar, 192 h, application rate of 200 ppm, mixed population (mobile stages) on sprayed bean leaf discs, 8 days after infestation, read-out: mortality
Protocol: Example B11: Tetranychus urticae (Two-Spotted Spider Mite): Feeding/Contact Activity
Bean leaf discs on agar in 24-well microtiter plates were sprayed with aqueous test solutions prepared from 10′000 ppm DMSO stock solutions. After drying the leaf discs were infested with a mite population of mixed ages. The samples were assessed for mortality on mixed population (mobile stages) 8 days after infestation.

[4] = tested on: Myzus persicae (Green Peach Aphid); experiment: Myzus persicae (Green Peach Aphid): systemic activity, pea seedlings; details: 144 h, test rate of 24 ppm, systemic, roots of infested pea seedlings in test solution, 6 days, read-out: mortality
Protocol: Example B7: Myzus persicae (Green Peach Aphid). Systemic Activity
Roots of pea seedlings infested with an aphid population of mixed ages were placed directly into aqueous test solutions prepared from 10′000 DMSO stock solutions. The samples were assessed for mortality 6 days after placing seedlings into test solutions.

[5] = tested on: Myzus persicae (Green Peach Aphid); experiment: Myzus persicae (Green Peach Aphid): feeding/contact activity, sunflower leaf discs; details: foliar, 144 h, application rate of 200 ppm, mixed ages on sprayed sunflower leaf discs, 6 days after infestation, read-out: mortality
Protocol: Example B6: Myzus persicae (Green Peach Aphid): Feeding/Contact Activity
Sunflower leaf discs were placed onto agar in a 24-well microtiter plate and sprayed with aqueous test solutions prepared from 10′000 ppm DMSO stock solutions. After drying, the leaf discs were infested with an aphid population of mixed ages. The samples were assessed for mortality 6 days after infestation.

[6] = tested on: Bemisia tabaci (Cotton White Fly); experiment: Bemisia tabaci (Cotton White Fly): feeding/contact activity, cotton leaf discs; details: foliar, 144 h, application rate of 200 ppm, adult white flies on sprayed cotton leaf discs, 6 days after incubation, read-out: mortality
Protocol: Example B1: Bemisia tabaci (Cotton White Fly): Feeding/Contact Activity
Cotton leaf discs were placed on agar in 24-well microtiter plates and sprayed with aqueous test solutions prepared from 10′000 ppm DMSO stock solutions. After drying the leaf discs were infested with adult white flies. The samples were checked for mortality 6 days after incubation.

SMILES | percent effect (mortality or growth inhibition) at 200 ppm [1] [%] | mortality at 12 ppm [2] [%] | mortality at 200 ppm [3] [%] | mortality at 24 ppm [4] [%] | mortality at 200 ppm [5] [%] | mortality at 200 ppm [6] [%]
Cc1cnc(OC[C@H](C)NS(=O)(=O)C(F)(F)F)cc1C(=O)NC12CC(C1)C2 [Compound P-66, N-(1-bicyclo[1.1.1]pentanyl)-5-methyl-2-[(2S)-2-(trifluoromethylsulfonylamino)propoxy]pyridine-4-carboxamide] | ≥ 80 |  |  |  |  | 
Cc1ncc(OC[C@H](C)NS(=O)(=O)C(F)(F)F)cc1C(=O)NC12CC(C1)C2 [Compound P-26, N-(1-bicyclo[1.1.1]pentanyl)-2-methyl-5-[(2S)-2-(trifluoromethylsulfonylamino)propoxy]pyridine-3-carboxamide] |  | ≥ 80 | ≥ 80 | ≥ 80 | ≥ 80 | 
C[C@@H](COc1cnc(Cl)c(C(=O)NC2CC2)c1)NS(=O)(=O)C(F)F [Compound P-10, 2-chloro-N-cyclopropyl-5-[(2S)-2-(difluoromethylsulfonylamino)propoxy]pyridine-3-carboxamide] |  | ≥ 80 | ≥ 80 | ≥ 80 |  | 
C[C@@H](COc1cnc(Cl)c(C(=O)NC2CC2)c1)NS(=O)(=O)C(Cl)Cl [Compound P-4, 2-chloro-N-cyclopropyl-5-[(2S)-2-(dichloromethylsulfonylamino)propoxy]pyridine-3-carboxamide] |  | ≥ 80 | ≥ 80 |  | ≥ 80 | 
Cc1cnc(OC[C@H](C)NS(=O)(=O)C(F)(F)F)cc1C(=O)NCCOc1ccccc1F [Compound P-71, N-[2-(2-fluorophenoxy)ethyl]-5-methyl-2-[(2S)-2-(trifluoromethylsulfonylamino)propoxy]pyridine-4-carboxamide] | ≥ 80 |  |  |  |  | 
C#CCNC(=O)c1cc(OC[C@H](C)NS(=O)(=O)C(F)(F)F)cnc1Cl [Compound P-52, 2-chloro-N-prop-2-ynyl-5-[(2S)-2-(trifluoromethylsulfonylamino)propoxy]pyridine-3-carboxamide] |  |  | ≥ 80 |  | ≥ 80 | ≥ 80
C[C@@H](COc1cnc(Cl)c(C(=O)NCC2(C#N)CC2)c1)NS(=O)(=O)C(F)(F)F [Compound P-46, 2-chloro-N-[(1-cyanocyclopropyl)methyl]-5-[(2S)-2-(trifluoromethylsulfonylamino)propoxy]pyridine-3-carboxamide] |  |  |  |  | ≥ 80 | ≥ 80
COCN([C@@H](C)COc1cc(C(=O)NC2(C#N)CC2)c(Br)cn1)S(=O)(=O)C(F)(F)F [Compound P-82, 5-bromo-N-(1-cyanocyclopropyl)-2-[(2S)-2-[methoxymethyl(trifluoromethylsulfonyl)amino]propoxy]pyridine-4-carboxamide] |  |  | ≥ 80 |  |  | ≥ 80
Cc1cc(Cl)cnc1NC(=O)c1cc(OC[C@H](C)NS(=O)(=O)C(F)(F)F)cnc1Cl [Compound P-20, 2-chloro-N-(5-chloro-3-methyl-2-pyridyl)-5-[(2S)-2-(trifluoromethylsulfonylamino)propoxy]pyridine-3-carboxamide] |  | ≥ 80 | ≥ 80 |  |  | ≥ 80
C[C@@H](COc1cc(C(=O)NC2CC2)c(Br)cn1)NS(=O)(=O)C(F)(F)F [Compound P-83, 5-bromo-N-cyclopropyl-2-[(2S)-2-(trifluoromethylsulfonylamino)propoxy]pyridine-4-carboxamide] |  | ≥ 80 |  | ≥ 80 | ≥ 80 | 
COCN([C@@H](C)COc1cnc(C)c(C(=O)NC2CC2)c1)S(=O)(=O)C(F)(F)F [Compound P-61, N-cyclopropyl-5-[(2S)-2-[methoxymethyl (trifluoromethylsulfonyl)amino]propoxy]-2-methyl-pyridine-3-carboxamide] | ≥ 80 |  |  |  |  | 
Cc1ncc(OC[C@H](C)NS(=O)(=O)C(F)(F)F)cc1C(=O)NCc1ccc(Cl)cn1 [Compound P-28, N-[(5-chloro-2-pyridyl)methyl]-2-methyl-5-[(2S)-2-(trifluoromethylsulfonylamino)propoxy]pyridine-3-carboxamide] |  |  |  | ≥ 80 |  | ≥ 80
CC(NC(=O)c1cc(OC[C@H](C)NS(=O)(=O)C(F)(F)F)cnc1Cl)C1CC1 (stereo partly drawn) [Compound P-45, 2-chloro-N-(1-cyclopropylethyl)-5-[(2S)-2-(trifluoromethylsulfonylamino)propoxy]pyridine-3-carboxamide] |  | ≥ 80 | ≥ 80 |  | ≥ 80 | 
Cc1ncc(OC[C@H](C)NS(=O)(=O)C(F)(F)F)cc1C(=O)NC(C)C1CC1 (stereo partly drawn) [Compound P-31, N-(1-cyclopropylethyl)-2-methyl-5-[(2S)-2-(trifluoromethylsulfonylamino)propoxy]pyridine-3-carboxamide] |  |  | ≥ 80 |  |  | ≥ 80
C[C@@H](COc1cnc(Cl)c(C(=O)Nc2ccccc2)c1)NS(=O)(=O)C(F)(F)F [Compound P-56, 2-chloro-N-phenyl-5-[(2S)-2-(trifluoromethylsulfonylamino)propoxy]pyridine-3-carboxamide] |  |  | ≥ 80 |  |  | ≥ 80
C[C@@H](COc1cc(C(=O)NC2(C#N)CC2)c(Br)cn1)NS(=O)(=O)C(F)(F)F [Compound P-86, 5-bromo-N-(1-cyanocyclopropyl)-2-[(2S)-2-(trifluoromethylsulfonylamino)propoxy]pyridine-4-carboxamide] |  |  |  |  |  | ≥ 80
CC(C)C(=O)OCN([C@@H](C)COc1cnc(Cl)c(C(=O)NC2CC2)c1)S(=O)(=O)C(F)(F)F [Compound P-13, [[(1S)-2-[[6-chloro-5-(cyclopropylcarbamoyl)-3-pyridyl]oxy]-1-methyl-ethyl]-(trifluoromethylsulfonyl)amino]methyl 2-methylpropanoate] |  | ≥ 80 | ≥ 80 | ≥ 80 | ≥ 80 | ≥ 80
C[C@@H](COc1cnc(Cl)c(C(=O)NC2CON(CC(F)(F)F)C2=O)c1)NS(=O)(=O)C(F)(F)F (stereo partly drawn) [Compound P-54, 2-chloro-N-[3-oxo-2-(2,2,2-trifluoroethyl)isoxazolidin-4-yl]-5-[(2S)-2-(trifluoromethylsulfonylamino)propoxy]pyridine-3-carboxamide] |  | ≥ 80 |  | ≥ 80 | ≥ 80 | ≥ 80
C[C@@H](COc1cnc(Cl)c(C(=O)NC(C)(C)C#N)c1)NS(=O)(=O)C(F)(F)F [Compound P-57, 2-chloro-N-(1-cyano-1-methyl-ethyl)-5-[(2S)-2-(trifluoromethylsulfonylamino)propoxy]pyridine-3-carboxamide] |  | ≥ 80 | ≥ 80 | ≥ 80 | ≥ 80 | ≥ 80
C[C@@H](COc1cc(C(=O)NC2CC2)c(Cl)cn1)NS(=O)(=O)C(F)(F)F [Compound P-87, 5-chloro-N-cyclopropyl-2-[(2S)-2-(trifluoromethylsulfonylamino)propoxy]pyridine-4-carboxamide] |  | ≥ 80 | ≥ 80 |  | ≥ 80 | 
O=C(NC1CC1)c1cc(OCCNS(=O)(=O)C(F)(F)F)cnc1Cl [Compound P-17, 2-chloro-N-cyclopropyl-5-[2-(trifluoromethylsulfonylamino)ethoxy]pyridine-3-carboxamide] |  | ≥ 80 |  |  | ≥ 80 | ≥ 80
Cc1cnc(OC[C@H](C)NS(=O)(=O)C(F)(F)F)cc1C(=O)NC1CCN(CC(F)(F)F)C1=O (stereo partly drawn) [Compound P-70, 5-methyl-N-[2-oxo-1-(2,2,2-trifluoroethyl)pyrrolidin-3-yl]-2-[(2S)-2-(trifluoromethylsulfonylamino)propoxy]pyridine-4-carboxamide] |  |  |  |  | ≥ 80 | ≥ 80
